Earlier results, collected in patent US20100121052A1, “Novel compounds for treating proliferative diseases” (priority 2008, published 2010).

Tested on: prostate cancer cell lines
Conditions: background statement

In the case of CC(=O)O[C@@H]1[C@@H](OC(C)=O)[C@@H](O)[C@H](Oc2c(-c3ccc(O)cc3)oc3cc(O)cc(O)c3c2=O)O[C@H]1C [SL0101], the “inhibition of proliferation of multiple prostate cancer cell lines” value is listed as “inhibit the proliferation”.
